According to US20240033278A9, “CONJUGATE GROUP AND CONJUGATE” (MEDSHINE DISCOVERY INC., priority 2020, published 2024):

Molecular target: T1, human-derived anti-asialoglycoprotein receptors (ASGPR) (Homo sapiens, UniProt P07306)
T1 construct: purchased Sino Biological 10773-H07H
T1 sequence (P07306 1-291): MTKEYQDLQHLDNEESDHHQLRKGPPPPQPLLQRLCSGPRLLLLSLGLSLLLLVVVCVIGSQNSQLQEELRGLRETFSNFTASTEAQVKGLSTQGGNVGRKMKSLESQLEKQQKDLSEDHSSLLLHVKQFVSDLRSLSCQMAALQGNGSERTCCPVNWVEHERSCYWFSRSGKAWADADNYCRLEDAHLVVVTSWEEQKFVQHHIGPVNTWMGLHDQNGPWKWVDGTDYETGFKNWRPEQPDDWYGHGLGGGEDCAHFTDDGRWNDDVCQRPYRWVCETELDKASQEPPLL
Test: Binding affinity of the compound to human-derived ASGPR by surface plasmon resonance (SPR)
Method: Assay Example 1. Test of the Binding Affinity of the Compound to Human-Derived […]
The binding affinity of the compound to human-derived […] (ASGPR) was tested by surface plasmon resonance (SPR) technique, and the kinetic KD value of the compound was used as an indicator to evaluate the binding affinity of the compound to ASGPR, thereby reflecting the ability of the compound to specifically target hepatocytes for delivery of nucleic acid molecules.
Asialoglycoprotein Receptor Protein, Mouse, Recombinant (His Tag), Sino biological-50083-M07H-50 μg; Asialoglycoprotein Receptor Protein, Human, Recombinant (His Tag), Sino biological-10773-H07H-50 μg
3.1 The two proteins were respectively dissolved in 1×PBS to obtain a solution of 0.25 mg/mL, and the compound to be tested was dissolved in DMSO. The running buffer (10 mM HEPES, 150 mM NaCl, 0.05% Tween 20, 50 mM CaCl2, 50 μM EDTA) was prepared and filtered through a 0.22 μm membrane.
3.2 The NiHC 1500M Chip was docked into a biacore, and the system was switched to a running buffer.
3.3 Protein labeling: The chip was first treated with 350 mM EDTA at 30 μl/min for 5 min, rinsed with running buffer for 2 min, and then bound with 40 mM NiCl2 at 30 μl/min for 2 min. A protein diluted to 5 μg/mL with running buffer was then labeled on the chip at a flow rate of 10 μl/min for a final labeling amount of 1500-2000 RU.
3.4 The instrument system was switched to a running buffer containing 2% DMSO.
3.5 The compound with a starting concentration of 2 μM was serially diluted 2-fold with a running buffer containing 2% DMSO to obtain 9 concentrations. The final concentration of DMSO was 2%.
3.6 Testing: For each cycle, the compound was bound for 60 s and dissociated for 180 s at a flow rate of 50 μl/min. The compound was tested in order of concentration from low to high. Before the gradient testing of the compound, 4 cycles of blank (running buffer with 2% DMSO) were introduced, and solvent correction was performed with 1.5%-3.5% DMSO (6 concentrations).
The data were analyzed with Biacore Insight Evaluation Software, kinetics was analyzed with a 1:1 model, and affinity was analyzed with a steady state affinity model.

SMILES: COc1ccc(C(OC[C@@H]2C[C@@H](O)CN2C(=O)CCCCCCCCCCOCC(COCCC(=O)NCCCNC(=O)CCCCOC2OC(CO)C(O)C(O)C2NC(C)=O)(COCCC(=O)NCCCNC(=O)CCCCOC2OC(CO)C(O)C(O)C2NC(C)=O)NC(=O)CCC(=O)NCCCNC(=O)CCCCOC2OC(CO)C(O)C(O)C2NC(C)=O)(c2ccccc2)c2ccc(OC)cc2)cc1 (stereo partly drawn) [Compound D-01-M]
- binding affinity in the SPR assay (in words) (SPR): good binding affinity
- Kd (SPR (Biacore 8k), kinetic KD, 1:1 model, His-tagged recombinant protein on NiHC 1500M chip): 15.6 nM
- kon (SPR, association rate constant, 1:1 model, read-out: Ka): 1.08e+06 M⁻¹ s⁻¹
- koff (SPR, dissociation rate constant, 1:1 model): 0.0168 s⁻¹
